One series concerns souris. Kind of series: Potentiation of an infra-hypnotic dose of sodium pentobarbital. The series is classed as in vivo. Particulars: mouse, 100 mg/kg oral, 30 min before i.p. infra-hypnotic dose of sodium pentobarbital; control 0. The method, then: Les composés de l'invention potentialisent de façon très nette l'action des hypnotiques. En effet, administrés à différents lots de souris par la voie orale, à la dose de 100 mg/ kg, trente minutes avant l'injection intrapéritonéale d'une dose infra-hypnotique de pentobarbital sodique, ils produisent par rapport aux animaux témoins non traités, une nette poten- tialisation de l'action du barbiturique.
En effet, le nombre de souris endormies, le temps moyen d'endormissement et la durée du sommeil sont nettement accrus dans les lots traités. Les résultats des composés les plus actifs sont rassemblés dans le Tableau I suivant.

Series [1] relates to rat. Kind of series: Anticonvulsant action against electroshock. The conditions noted are these: 100 mg/kg oral, electroshock 30 min after treatment, score 0 to 4, untreated controls 4. It counts as in vivo. The method, then:
Cette action a été étudiée vis-à-vis des électrochocs. L'application chez le rat d'une stimulation électrique supérieure au seuil électro-convulsivant provoque des convulsions expérimentales. On compare alors chez les animaux témoins et chez les animaux traités, à la fois la présence et la durée de chacune des phases convulsives et l'intensité de la crise dans son ensemble.
On établit des séries de 10 rats par produit à tester et on administre par la voie orale, à chaque animal, 100 mg/kg de ce produit.
De chaque côté de la base de la queue de chaque […], une électrode Cat mise en place et 30 minutes après le traitement, l'animal placé dans une enceinte de verre reçoit pendant 50 millisecondes un courant sinusoïdal de 50 périodes/secondes de 120 volts.
Le passage du courant déclenche une crise convulsive dont chacune des phases (tonique, clonique, relachement musculaire) est chronométrée. L'intensité de la crise est alors notée de 0 à 4 selon la présence de chacune des phases et leur durée. Les produits de l'invention sont testés comparativement au phénobarbital qui possède une action anti-convulsivante marquée (intensité de la crise = 2), alors que chez les animaux témoins non traités c'est l'intensité maxima de 4 qui est obtenue.

The test system of series [2] is rat. Kind of series: Localised carrageenan-induced oedema. The series is classed as in vivo. The conditions noted are these: 100 mg/kg oral at -1 h, 0 h, +2.5 h. The procedure:
Une solution de carragénine (0,1 ml), à 1 %, est injectée dans les fléchisseurs métatarsiens de la patte postérieure droite du rat au temps 0. Les animaux du lot traité reçoivent en outre, par la voie orale, 100 mg par kg du dérivé à tester respectivement 1 heure avant, en même temps que l'injection de l'agent phlogogène, puis 1 heure et 2 heures et demi après. Les mesures qui sont effectuées à l'aide du micromètre de ROGH au temps 0, 1 heure, 2 heures, 3 heures et 5 heures après l'administration de la carragénine permettent de déterminer, en fonction du temps, le pourcentage d'activité anti-inflammatoire, par comparaison avec le lot témoin.
For orientation: The carrageenan paw model is a standard test of acute inflammation.

Series [3] concerns rat. The series is described as follows: Generalised ovalbumin oedema. It counts as in vivo. Particulars: po, 100 mg/kg per os 1 h before and together with ovalbumin. The method, then: Une injection intrapéritonéale simultanée de 1 ml d'ovalbumine et de 0,5 ml d'une solution aqueuse de bleu Evans à 1% est effectuée sur le rat. D'autre part, on administre per os aux animaux du lot traité 100 mg/kg du dérivé à tester une heure avant et en même temps que l'ovalbumine. L'intensité du phénomène ainsi provoqué est notée par un chiffre allant de 1 à 5 suivant la progression du syndrome inflammatoire. On détermine ainsi la moyenne de l'intensité oedémateuse et le pourcentage de diminution de la réaction oedémateuse par rapport au témoin, en fonction du temps.

Series [4] can be described thus: Acute toxicity, intravenous LD50 (method of Miller and Tainter). Set-up: species or system souris. Particulars: mouse, in vivo, read-out: DL50/24 H/kg de poids corporel. The method, then: En ce qui concerne la toxicité aigüe, la DL50/24 H/kg de poids corporel, déterminée chez la souris selon la méthode de Miller et Tainter pour la voie orale est supérieure à 400 mg pour tous les dérivés.
Selon la même méthode, la DL50/24 H/kg de poids corporel déterminée par la vole intraveineuse est, par exemple, de 154 mg pour le dérivé N° 1, de 89 mg pour le dérivé N° 2, de 184mg pour le dérivé N° 10, de 130 mg pour le dérivé N° 11, de 350mg pour le dérivé N° 12, de 65 mg pour le dérivé N° 18, de 90 mg pour le dérivé N° 22, de 96 mg pour le dérivé N° 24 et de 105 mg pour le dérivé N° 31.

The mark [5] stands for this setting: 1 h after carrageenan, read-out: Pourcentage d'activité anti-inflammatoire 1ère heure.
Setting [6] is: 2 h after carrageenan, read-out: Pourcentage d'activité anti-inflammatoire 2ème heure.
[7] abbreviates: 3 h after carrageenan, read-out: Pourcentage d'activité anti-inflammatoire 3ème heure.
The mark [8] stands for this setting: 5 h after carrageenan, read-out: Pourcentage d'activité anti-inflammatoire 5ème heure.
The mark [9] stands for this setting: 2 h after ovalbumin injection, read-out: Pourcentage d'activité anti-inflammatoire 2ème heure.
The mark [10] stands for this setting: 3 h after ovalbumin injection, read-out: Pourcentage d'activité anti-inflammatoire 3ème heure.

Consider `CC(C)NC(=O)c1cc2ccsc2cn1` [Dérivé 5, Isopropylaminocarbonyl-5 thiéno [2,3-c] pyridine], for which the “Pourcentage d'animaux endormis” value with souris was determined as 80%. Moreover, the “valeurs moyennes de l'intensité des crises” value with rat [1] was 2,5. Moreover, the inhibition in vivo at 100 mg/kg in the series with rat [2] (setting [5]) amounted to 43%; in the series on rat [2] (setting [6]), 49%; in the series with rat [2] (setting [7]), 54%; in the series with rat [2] (setting [8]) it was 56%; in the series on rat [3] (setting [9]) it was 52%; in the series on rat [3] (setting [10]), 60%.

For `C=CCNC(=O)c1cc2sccc2cn1` [Dérivé 16, Allylaminocarbonyl-6 thiéno [3,2-c] pyridine], the “Pourcentage d'animaux endormis” value in the series with souris amounted to 70%.

In the case of `O=C(NCc1cccnc1)c1cc2sccc2cn1` [Dérivé 24, (pyridyl-3 méthyl)aminocarbonyl-6 thiéno[3,2-c] pyridine], in series [4], the LD50 at 24 h came out at 96 mg/kg.

On to `O=C(c1cc2sccc2cn1)N1CCN(c2ccccc2Cl)CC1` [Dérivé 27, (o-chlorophényl-4 pipérazinyl-1) carbonyl-6 thiéno[3,2-c] pyridine], for which the inhibition in vivo at 100 mg/kg in the series on rat [2] (setting [5]) was 41%; in the series with rat [2] (setting [6]) it was 49%; in the series with rat [2] (setting [7]), 52%; with rat [2] (setting [8]) it was 54%; in the series with rat [3] (setting [9]), 47%; with rat [3] (setting [10]), 56%.

Turning to `O=C(NCCN1CCOCC1)c1cc2sccc2cn1` [Dérivé 19, β -morpholinoéthylaminocarbonyl-6 thiéno[3,2-c] pyridine], the “valeurs moyennes de l'intensité des crises” value with rat [1] is listed as 2,5.

Consider `CCNC(=O)c1cc2sccc2cn1` [Dérivé 4, Ethylaminocarbonyl-6 thiéno [3,2-c] pyridine], for which, in the series on rat [1], the “valeurs moyennes de l'intensité des crises” value is listed as 3. The inhibition in vivo at 100 mg/kg stood at 41% in the series with rat [2] (setting [5]); 46% in the series with rat [2] (setting [6]); 50% with rat [2] (setting [7]); 58% in the series on rat [2] (setting [8]); 47% in the series on rat [3] (setting [9]); 56% with rat [3] (setting [10]).

As to `O=C(c1cc2sccc2cn1)N1CCN(c2cccc(Cl)c2)CC1` [Dérivé 28, (m-chlorophényl-4 pipérazinyl-1)carbonyl-6 thiéno[3,2-c] pyridine], in the series on souris, the “Pourcentage d'animaux endormis” value is listed as 80%.

Consider `CCC1(c2ccccc2)C(=O)NC(=O)NC1=O` [phénobarbital, reference compound], for which the “valeurs moyennes de l'intensité des crises” value in the series on rat [1] is 2.

Turning to `COc1ccc(N2CCN(C(=O)c3cc4sccc4cn3)CC2)cc1` [Dérivé 29, (p-méthoxyphényl-4 pipérazinyl-1) carbonyl-6 tniéno[3,2-c] pyridine], the “Pourcentage d'animaux endormis” value in the series with souris is recorded as 90%.

Take `O=C(NCc1ccccc1)c1cc2ccsc2cn1` [Dérivé 13, Benzylaminocarbonyl-5 thiéno [2,3-c] pyridine]: in the series on rat [1], the “valeurs moyennes de l'intensité des crises” value was 3. For the same molecule, the inhibition in vivo at 100 mg/kg with rat [2] (setting [5]) amounted to 34%; in the series on rat [2] (setting [6]), 40%; with rat [2] (setting [7]) it was 45%; in the series on rat [2] (setting [8]), 51%; in the series on rat [3] (setting [9]), 50%; in the series on rat [3] (setting [10]) it was 56%.

On to `COc1ccccc1N1CCN(C(=O)c2cc3ccsc3cn2)CC1` [Dérivé 30, (o-méthoxyphényl-4 pipérazinyl-1) carbonyl-5 thiéno[2,3-c] pyridine], for which, in the series on rat [1], the “valeurs moyennes de l'intensité des crises” value is 2,5. The inhibition in vivo at 100 mg/kg in the series on rat [2] (setting [5]) was determined as 38%; in the series with rat [2] (setting [6]), 45%; with rat [2] (setting [7]), 49%; with rat [2] (setting [8]), 53%; in the series on rat [3] (setting [9]), 48%; in the series with rat [3] (setting [10]), 56%.

Regarding `O=C(c1cc2sccc2cn1)N1CCOCC1` [Dérivé 12, Morpholinocarbonyl-6 thiéno [3,2-c] pyridine], the LD50 at 24 h in series [4] was determined as 350 mg/kg.

Regarding `O=C(NCc1cccnc1)c1cc2ccsc2cn1` [Dérivé 23, (pyridyl-3 méthyl)aminocarbonyl-5 thiéno [2,3-c]pyridine], the “Pourcentage d'animaux endormis” value in the series with souris stood at 80%.

Regarding `Cc1ccc(N2CCN(C(=O)c3cc4sccc4cn3)CC2)cc1` [Dérivé 26, (p-tolyl-4 pipérazinyl-1)carbonyl-6 thiéno[3,2-c]bvridine], the “Pourcentage d'animaux endormis” value in the series with souris turned out to be 90%.

For the molecule `CCCCNC(=O)c1cc2sccc2cn1` [Dérivé 6, n-butylaminocarbonyl-6 thiéno [3,2-c] pyridine], the “Pourcentage d'animaux endormis” value in the series on souris came out at 80%.

With `O=C(Nc1cccc(C(F)(F)F)c1)c1cc2sccc2cn1` [Dérivé 25, (trifluorométhyl-3 phényl)aminocarbonyl-6 thiéno[3,2-c] pyridine], in the series on souris, the “Pourcentage d'animaux endormis” value worked out at 90%. Besides, the “valeurs moyennes de l'intensité des crises” value in the series with rat [1] was 2,5. Besides, the inhibition in vivo at 100 mg/kg is 39% with rat [2] (setting [5]); 46% in the series on rat [2] (setting [6]); 49% in the series with rat [2] (setting [7]); 52% with rat [2] (setting [8]); 51% in the series with rat [3] (setting [9]); 59% in the series on rat [3] (setting [10]).

As to `O=C(NCCc1ccccc1)c1cc2sccc2cn1` [Dérivé 15, Phénéthylaminocarbonyl-6 thiéno[3,2-c] pyridine], the “Pourcentage d'animaux endormis” value in the series with souris amounted to 90%. The inhibition in vivo at 100 mg/kg amounted to 38% with rat [2] (setting [5]); 45% in the series on rat [2] (setting [6]); 49% in the series with rat [2] (setting [7]); 53% with rat [2] (setting [8]); 53% in the series on rat [3] (setting [9]); 60% in the series on rat [3] (setting [10]).

Turning to `NC(=O)c1cc2ccsc2cn1` [Dérivé 32, Carbamoyl-5 thiéno [2,3-c] pyridine], the inhibition in vivo at 100 mg/kg is 34% in the series with rat [2] (setting [5]); 41% in the series with rat [2] (setting [6]); 45% in the series on rat [2] (setting [7]); 47% with rat [2] (setting [8]); 52% in the series on rat [3] (setting [9]); 60% in the series on rat [3] (setting [10]).

Regarding `O=C(NCc1ccncc1)c1cc2ccsc2cn1` [Dérivé 21, (pyridyl-4-méthyl)aminocarbonyl-5-thiéno[2,3-c] pyridine], the inhibition in vivo at 100 mg/kg in the series on rat [2] (setting [5]) amounted to 40%; with rat [2] (setting [6]), 48%; in the series with rat [2] (setting [7]) it was 51%; in the series on rat [2] (setting [8]), 54%; in the series on rat [3] (setting [9]) it was 45%; with rat [3] (setting [10]), 52%.

Consider `CCN(CC)C(=O)c1cc2sccc2cn1` [Dérivé 9, Diéthylaminocarbonyl-6 thiéno[3,2-c] pyridine], for which the “valeurs moyennes de l'intensité des crises” value in the series with rat [1] is recorded as 2,5.

These data come from patent EP0003920A1, “Thieno (3,2-c)- and thieno (2,3-c)pyridines, process for their preparation and their therapeutical application” (OMNIUM FINANCIER AQUITAINE POUR L'HYGIENE ET LA SANTE - …, priority 1978, dated 1979).
